Reference: PubChem BioAssay (NCI)
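Step 1: Grow cells in 96-well plates. Step 2: Expose to compound for 48 hours at 5 concentrations. Step 3: Interpolate endpoints linearly; if unreached, use highest concentration. GI50: concentration for 50% inhibition of growth. TGI: total growth inhibition.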

Legend:
Assay in all cases: NCI-60 cell line screen, 48 h
SR leukemia = tested on: SR leukemia
HOP-92 NSCLC = tested on: HOP-92 NSCLC
SF-539 CNS = tested on: SF-539 CNS
HT29 colon = tested on: HT29 colon
ACHN renal = tested on: ACHN renal
A498 renal = tested on: A498 renal
SW-620 colon = tested on: SW-620 colon
K-562 leukemia = tested on: K-562 leukemia
MDA-MB-435 = tested on: MDA-MB-435
SK-OV-3 ovarian = tested on: SK-OV-3 ovarian
NCI-H522 lung = tested on: NCI-H522 lung
PC-3 prostate = tested on: PC-3 prostate
COLO 205 colon = tested on: COLO 205 colon
LOX IMVI melanoma = tested on: LOX IMVI melanoma
SNB-19 CNS = tested on: SNB-19 CNS
DU-145 prostate = tested on: DU-145 prostate
A549 NSCLC = tested on: A549 NSCLC
MDA-MB-231 breast = tested on: MDA-MB-231 breast
U251 CNS = tested on: U251 CNS
SK-MEL-28 melanoma = tested on: SK-MEL-28 melanoma
UACC-62 melanoma = tested on: UACC-62 melanoma
EKVX NSCLC = tested on: EKVX NSCLC
NCI-H23 lung = tested on: NCI-H23 lung
UO-31 renal = tested on: UO-31 renal
CCRF-CEM leukemia = tested on: CCRF-CEM leukemia
SNB-75 CNS = tested on: SNB-75 CNS
MOLT-4 leukemia = tested on: MOLT-4 leukemia
HOP-62 NSCLC = tested on: HOP-62 NSCLC
IGROV1 ovarian = tested on: IGROV1 ovarian
NCI-H460 lung = tested on: NCI-H460 lung
OVCAR-8 ovarian = tested on: OVCAR-8 ovarian
RXF 393 renal = tested on: RXF 393 renal
HCC-2998 colon = tested on: HCC-2998 colon
HS 578T breast = tested on: HS 578T breast
BT-549 breast = tested on: BT-549 breast
MALME-3M melanoma = tested on: MALME-3M melanoma
NCI-H226 lung = tested on: NCI-H226 lung
HL-60(TB) leukemia = tested on: HL-60(TB) leukemia
CAKI-1 renal = tested on: CAKI-1 renal
NCI/ADR-RES ovarian = tested on: NCI/ADR-RES ovarian
SF-295 CNS = tested on: SF-295 CNS
HCT-15 colon = tested on: HCT-15 colon
KM12 colon = tested on: KM12 colon
786-0 renal = tested on: 786-0 renal
OVCAR-5 ovarian = tested on: OVCAR-5 ovarian
OVCAR-3 ovarian = tested on: OVCAR-3 ovarian
TK-10 renal = tested on: TK-10 renal
SK-MEL-5 melanoma = tested on: SK-MEL-5 melanoma
OVCAR-4 ovarian = tested on: OVCAR-4 ovarian
SK-MEL-2 melanoma = tested on: SK-MEL-2 melanoma
UACC-257 melanoma = tested on: UACC-257 melanoma
T-47D breast = tested on: T-47D breast
M14 melanoma = tested on: M14 melanoma
RPMI-8226 leukemia = tested on: RPMI-8226 leukemia
HCT-116 colon = tested on: HCT-116 colon
SF-268 CNS = tested on: SF-268 CNS
SN12C renal = tested on: SN12C renal
MCF7 breast = tested on: MCF7 breast

COc1cccc(-n2ncc3c(N/N=C/c4ccc(F)cc4)ncnc32)c1
GI50 (SR leukemia): > 25 µM | TGI (SR leukemia): > 25 µM | GI50 (HOP-92 NSCLC): 6.48 µM | TGI (HOP-92 NSCLC): 19.9 µM | GI50 (SF-539 CNS): 13.9 µM | TGI (SF-539 CNS): > 25 µM | GI50 (HT29 colon): > 25 µM | TGI (HT29 colon): > 25 µM | GI50 (ACHN renal): > 25 µM | TGI (ACHN renal): > 25 µM | GI50 (A498 renal): > 16.1 µM | TGI (A498 renal): > 25 µM | GI50 (SW-620 colon): 24.3 µM | TGI (SW-620 colon): > 25 µM | GI50 (K-562 leukemia): > 25 µM | TGI (K-562 leukemia): > 25 µM | GI50 (MDA-MB-435): 14.5 µM | TGI (MDA-MB-435): > 25 µM | GI50 (SK-OV-3 ovarian): 13.6 µM | TGI (SK-OV-3 ovarian): > 25 µM | GI50 (NCI-H522 lung): > 19.1 µM | TGI (NCI-H522 lung): > 25 µM | GI50 (PC-3 prostate): > 25 µM | TGI (PC-3 prostate): > 25 µM | GI50 (COLO 205 colon): > 25 µM | TGI (COLO 205 colon): > 25 µM | GI50 (LOX IMVI melanoma): > 25 µM | TGI (LOX IMVI melanoma): > 25 µM | GI50 (SNB-19 CNS): 24.5 µM | TGI (SNB-19 CNS): > 25 µM | GI50 (DU-145 prostate): 17.4 µM | TGI (DU-145 prostate): > 25 µM | GI50 (A549 NSCLC): 11.6 µM | TGI (A549 NSCLC): > 25 µM | GI50 (MDA-MB-231 breast): 8.59 µM | TGI (MDA-MB-231 breast): > 25 µM | GI50 (U251 CNS): 8.81 µM | TGI (U251 CNS): > 21.9 µM | GI50 (SK-MEL-28 melanoma): > 25 µM | TGI (SK-MEL-28 melanoma): > 25 µM | GI50 (UACC-62 melanoma): > 25 µM | TGI (UACC-62 melanoma): > 25 µM | GI50 (EKVX NSCLC): > 25 µM | TGI (EKVX NSCLC): > 25 µM | GI50 (NCI-H23 lung): > 20.1 µM | TGI (NCI-H23 lung): > 25 µM | GI50 (UO-31 renal): > 14.6 µM | TGI (UO-31 renal): > 25 µM | GI50 (CCRF-CEM leukemia): > 25 µM | TGI (CCRF-CEM leukemia): > 25 µM | GI50 (SNB-75 CNS): 5.98 µM | TGI (SNB-75 CNS): > 18.6 µM | GI50 (MOLT-4 leukemia): > 25 µM | TGI (MOLT-4 leukemia): > 25 µM | GI50 (HOP-62 NSCLC): 16.7 µM | TGI (HOP-62 NSCLC): > 25 µM | GI50 (IGROV1 ovarian): > 25 µM | TGI (IGROV1 ovarian): > 25 µM | GI50 (NCI-H460 lung): 10.3 µM | TGI (NCI-H460 lung): 24.7 µM | GI50 (OVCAR-8 ovarian): 14.8 µM | TGI (OVCAR-8 ovarian): > 25 µM | GI50 (RXF 393 renal): 10.6 µM | TGI (RXF 393 renal): 24.9 µM | GI50 (HCC-2998 colon): > 25 µM | TGI (HCC-2998 colon): > 25 µM | GI50 (HS 578T breast): 7.51 µM | TGI (HS 578T breast): 22.1 µM | GI50 (BT-549 breast): > 25 µM | TGI (BT-549 breast): > 25 µM | GI50 (MALME-3M melanoma): 11.3 µM | TGI (MALME-3M melanoma): > 25 µM | GI50 (NCI-H226 lung): > 25 µM | TGI (NCI-H226 lung): > 25 µM | GI50 (HL-60(TB) leukemia): > 25 µM | TGI (HL-60(TB) leukemia): > 25 µM | GI50 (CAKI-1 renal): > 18.7 µM | TGI (CAKI-1 renal): > 25 µM | GI50 (NCI/ADR-RES ovarian): 14.2 µM | TGI (NCI/ADR-RES ovarian): > 25 µM | GI50 (SF-295 CNS): > 25 µM | TGI (SF-295 CNS): > 25 µM | GI50 (HCT-15 colon): > 25 µM | TGI (HCT-15 colon): > 25 µM | GI50 (KM12 colon): 18.4 µM | TGI (KM12 colon): > 25 µM | GI50 (786-0 renal): 11.8 µM | TGI (786-0 renal): > 19.5 µM | GI50 (OVCAR-5 ovarian): > 25 µM | TGI (OVCAR-5 ovarian): > 25 µM | GI50 (OVCAR-3 ovarian): 5.27 µM | TGI (OVCAR-3 ovarian): 10.3 µM | GI50 (TK-10 renal): 12.4 µM | TGI (TK-10 renal): > 23.3 µM | GI50 (SK-MEL-5 melanoma): 14.7 µM | TGI (SK-MEL-5 melanoma): > 25 µM | GI50 (OVCAR-4 ovarian): 6.55 µM | TGI (OVCAR-4 ovarian): 14.5 µM | GI50 (SK-MEL-2 melanoma): > 25 µM | TGI (SK-MEL-2 melanoma): > 25 µM | GI50 (UACC-257 melanoma): > 25 µM | TGI (UACC-257 melanoma): > 25 µM | GI50 (T-47D breast): 11.6 µM | TGI (T-47D breast): > 25 µM | GI50 (M14 melanoma): > 23.6 µM | TGI (M14 melanoma): > 25 µM | GI50 (RPMI-8226 leukemia): > 25 µM | TGI (RPMI-8226 leukemia): > 25 µM | GI50 (HCT-116 colon): 10.2 µM | TGI (HCT-116 colon): > 25 µM | GI50 (SF-268 CNS): > 25 µM | TGI (SF-268 CNS): > 25 µM | GI50 (SN12C renal): 23 µM | TGI (SN12C renal): > 25 µM | GI50 (MCF7 breast): > 17 µM | TGI (MCF7 breast): > 25 µM
